Values after ≈ are worked out from the molar mass of the structure shown. Active and inactive are the calls of the source. No cut-off for these calls is given here.
Columns and labels:
[1] = test system: Bacillus anthracis; experiment: Inhibition of Bacillus anthracis 7702 BA1977 assessed as induction of lysozyme sensitivity at 10 to 50 uM incubated for 250 mins under shaking condition measured every 30 mins
[2] = test system: Bacillus anthracis; experiment: Antibacterial activity against Bacillus anthracis 7702 measured after 16 hrs in absence of lysozyme; format: functional; conditions: Bacillus anthracis, 7702, 16 h
[3] = test system: Bacillus anthracis; experiment: Ratio of MBC to MIC for Bacillus anthracis 7702 measured after 16 hrs in presence of lysozyme; format: functional
[4] = test system: Bacillus cereus; experiment: Antibacterial activity against Bacillus cereus ATCC 14579 assessed as production of longer chains of daughter cells at 40 ug/ml incubated 16 hrs under shaking condition by scanning electron microscopic analysis; format: functional, organism-based
[5] = test system: Bacillus cereus; experiment: Antibacterial activity against Bacillus cereus ATCC 14579 measured after 16 hrs in presence of lysozyme; format: functional; conditions: ATCC 14579, 16 h
[6] = test system: Bacillus cereus; experiment: Ratio of MBC to MIC for Bacillus cereus ATCC 14579 measured after 16 hrs in absence of lysozyme; format: functional
[7] = target: T1, Peptidoglycan-N-acetylglucosamine deacetylase BC_1974 (Bacillus cereus (strain ATCC 14579 / DSM 31 / JCM 2152 / NBRC 15305 /NCIMB 9373 / NRRL B-3711), UniProt Q81EJ6); experiment: Inhibition of recombinant Bacillus cereus BC1974 expressed in Escherichia coli using GlcNAc5 as substrate measured after 5 mins by fluorescamine based fluorescence assay
T1 sequence (Q81EJ6 whole entry): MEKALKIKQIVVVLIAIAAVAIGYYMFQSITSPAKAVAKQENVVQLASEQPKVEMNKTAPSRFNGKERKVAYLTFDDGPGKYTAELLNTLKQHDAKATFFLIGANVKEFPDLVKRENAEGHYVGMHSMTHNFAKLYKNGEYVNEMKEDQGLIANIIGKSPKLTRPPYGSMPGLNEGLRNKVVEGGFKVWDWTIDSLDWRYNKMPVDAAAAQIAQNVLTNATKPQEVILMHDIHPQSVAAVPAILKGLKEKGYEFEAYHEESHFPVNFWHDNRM

[8] = target: T2, Peptidoglycan-N-acetylglucosamine deacetylase BC_1960 (Bacillus cereus (strain ATCC 14579 / DSM 31 / JCM 2152 / NBRC 15305 /NCIMB 9373 / NRRL B-3711), UniProt Q81EK9); experiment: Competitive inhibition of recombinant Bacillus cereus BC1960 expressed in Escherichia coli using varying levels of GlcNAc5 as substrate measured after 10 mins in presence of fluorescamine by Line-weaver burk plot analysis; conditions: read-out: Ki(app)
T2 sequence (Q81EK9 whole entry): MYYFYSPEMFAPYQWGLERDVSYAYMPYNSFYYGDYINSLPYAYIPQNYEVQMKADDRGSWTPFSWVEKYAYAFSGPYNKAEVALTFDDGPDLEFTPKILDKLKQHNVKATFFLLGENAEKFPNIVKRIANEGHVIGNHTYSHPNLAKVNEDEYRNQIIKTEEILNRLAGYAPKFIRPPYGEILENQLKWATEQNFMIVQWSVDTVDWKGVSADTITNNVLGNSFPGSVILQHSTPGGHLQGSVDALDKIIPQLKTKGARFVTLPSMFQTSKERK

[9] = test system: Bacillus cereus; experiment: Ratio of MBC to MIC for Bacillus cereus ATCC 14579 measured after 16 hrs in presence of lysozyme; format: functional
[10] = test system: Bacillus anthracis; experiment: Ratio of MBC to MIC for Bacillus anthracis 7702 measured after 16 hrs in absence of lysozyme; format: functional
[11] = target: T2, Peptidoglycan-N-acetylglucosamine deacetylase BC_1960; experiment: Inhibition of recombinant Bacillus cereus BC1960 expressed in Escherichia coli using GlcNAc5 as substrate measured after 10 mins by fluorescamine based fluorescence assay
[12] = test system: Bacillus anthracis; experiment: Bactericidal activity against Bacillus anthracis 7702 measured after 72 hrs in presence of lysozyme; format: functional; conditions: Bacillus anthracis, 7702, 72 h
[13] = test system: Bacillus cereus; experiment: Bactericidal activity against Bacillus cereus ATCC 14579 measured after 72 hrs in absence of lysozyme; format: functional; conditions: ATCC 14579, 72 h
[14] = test system: Bacillus anthracis; experiment: Bactericidal activity against Bacillus anthracis 7702 measured after 72 hrs in absence of lysozyme; format: functional; conditions: Bacillus anthracis, 7702, 72 h
[15] = test system: Bacillus anthracis; experiment: Inhibition of Bacillus anthracis 7702 BA1977 assessed as induction of lysozyme sensitivity at 50 uM incubated for 250 mins under shaking condition measured every 30 mins
[16] = test system: Bacillus anthracis; experiment: Antibacterial activity against Bacillus anthracis 7702 measured after 16 hrs in presence of lysozyme; format: functional; conditions: Bacillus anthracis, 7702, 16 h
[17] = test system: Bacillus cereus; experiment: Bactericidal activity against Bacillus cereus ATCC 14579 measured after 72 hrs in presence of lysozyme; format: functional; conditions: ATCC 14579, 72 h
[18] = test system: Bacillus cereus; experiment: Antibacterial activity against Bacillus cereus ATCC 14579 measured after 16 hrs in absence of lysozyme; format: functional; conditions: ATCC 14579, 16 h
[19] = target: T1, Peptidoglycan-N-acetylglucosamine deacetylase BC_1974; experiment: Competitive inhibition of recombinant Bacillus cereus BC1974 expressed in Escherichia coli using varying levels of GlcNAc5 as substrate measured after 5 mins in presence of fluorescamine by Line-weaver burk plot analysis; conditions: read-out: Ki(app)
[20] = compound: O=C(NO)c1ccc(-c2cccc3ccccc23)cc1; experiment: Competitive inhibition of recombinant Bacillus cereus BC1974 expressed in Escherichia coli assessed as substrate Km at 20 uM using varying levels of GlcNAc5 as substrate measured after 5 mins in presence of fluorescamine by Line-weaver burk plot analysis
[21] = compound: O=C(NO)c1ccc(-c2cccc3ccccc23)cc1; experiment: Competitive inhibition of recombinant Bacillus cereus BC1974 expressed in Escherichia coli assessed as substrate Km at 40 uM using varying levels of GlcNAc5 as substrate measured after 5 mins in presence of fluorescamine by Line-weaver burk plot analysis

O=C(NO)c1cccc(Oc2ccccc2)c1
inhibition [1]: inactive

O=C(NO)c1cccc2ccccc12
inhibition [1]: inactive

O=C(NO)c1cccc(-c2ccccc2)c1
inhibition [1]: inactive

O=C(NO)c1ccc(-c2cccc3ccccc23)cc1
MIC [2]: 7.89 µg/mL (≈ 30 µM) | Ratio [3]: <4 | Activity [4]: Active | MIC [5]: 5.26 µg/mL | Ratio [6]: <4 | IC50 [7]: 43.3 µM | Ki [8]: 66 µM | Ratio [9]: <4 | Ratio [10]: <4 | IC50 [11]: 132 µM | MBC [12]: 8.23 µg/mL | MBC [13]: 8.23 µg/mL (≈ 31.3 µM) | MBC [14]: 8.23 µg/mL (≈ 31.3 µM) | inhibition [15]: Active | MIC [16]: 6.58 µg/mL | MBC [17]: 8.23 µg/mL | MIC [18]: 6.58 µg/mL (≈ 25 µM) | Ki [19]: 8.7 µM

B1: Peptidoglycan-N-acetylglucosamine deacetylase BC_1974 (Bacillus cereus (strain ATCC 14579 / DSM 31 / JCM 2152 / NBRC 15305 /NCIMB 9373 / NRRL B-3711)), Q81EJ6 (protein)
chain: T1 sequence (Q81EJ6 whole entry)
Km [20]: 22.8 µM | Km [21]: 42 µM
